Assay results reported in ChEMBL document CHEMBL1159014, “Isolation of potential cancer chemopreventive agents from Eriodictyon californicum” (1992).

Columns and labels:
[1] = Chemopreventive activity in Syrian hamster embryo cells assessed as inhibition of metabolism of [3H]benzo(a)pyrene to water-soluble metabolites after 24 hrs at 20 ug/ml relative to control; type: functional; conditions: Mesocricetus auratus, read-out: INH
[2] = Chemopreventive activity in Syrian hamster embryo cells assessed as inhibition of metabolism of [3H]benzo(a)pyrene to water-soluble metabolites after 24 hrs at 10 ug/ml relative to control; type: functional; conditions: Mesocricetus auratus, read-out: INH
[3] = Chemopreventive activity in Syrian hamster embryo cells assessed as inhibition of metabolism of [3H]benzo(a)pyrene to water-soluble metabolites after 24 hrs at 5 ug/ml relative to control; type: functional; conditions: Mesocricetus auratus, read-out: INH
Mesocricetus auratus = species on record: Mesocricetus auratus; assay: Chemopreventive activity in Syrian hamster embryo cells assessed as inhibition of [3H]benzo(a)pyrene-DNA binding at 10 ug/ml by [35S]phosphorothote post-labeling-HPLC; type: functional
[4] = Chemopreventive activity in Syrian hamster embryo cells assessed as pmol of [3H]benzo(a)pyrene binding per mg of DNA at 10 ug/ml by [35S]phosphorothote post-labeling-HPLC; type: functional, Mesocricetus auratus
[5] = Chemopreventive activity in Syrian hamster embryo cells assessed as pmol of (+)-anti-benzo(a)pyrene-7,8-diol-9,10-epoxide -dGuo adduct per mg of DNA at 10 ug/ml by [35S]phosphorothote post-labeling-HPLC; type: functional, Mesocricetus auratus

For `COc1cc2c(c(O)c1OC)C(=O)CC(c1ccc(O)cc1)O2` (stereo unspecified), the inhibition at 20 µg/mL [1] was 36%.
Work on `COc1cc2oc(-c3ccc(O)cc3)cc(=O)c2c(O)c1OC` [CIRSIMARITIN] yielded an inhibition at 20 µg/mL [1] of 92%, an inhibition at 10 µg/mL [2] of 85% and an inhibition at 5 µg/mL [3] of 69%. It also gave an inhibition (Mesocricetus auratus) of 71%, an Activity [4] of 19.4 pmol and an Activity [5] of 11.5 pmol.
Compound `O=C1C[C@@H](c2ccc(O)c(O)c2)Oc2cc(O)cc(O)c21` [ERIODICTYOL] has an inhibition at 20 µg/mL [1] of 55%, an inhibition at 10 µg/mL [2] of 40% and an inhibition at 5 µg/mL [3] of 16%.
In the case of `COc1cc([C@@H]2CC(=O)c3c(O)cc(O)cc3O2)ccc1O` [HOMOERIODICTYOL], the inhibition at 20 µg/mL [1] is reported as 36%.
For `COc1cc(O)c2c(c1)O[C@H](c1ccc(O)cc1)CC2=O` [SAKURANETIN], the inhibition at 20 µg/mL [1] was 52%.
`COc1c(O)cc2oc(-c3ccc(O)cc3)cc(=O)c2c1O` [HISPIDULIN] showed an inhibition at 20 µg/mL [1] of 92%, an inhibition at 10 µg/mL [2] of 75% and an inhibition at 5 µg/mL [3] of 18%.
`O=c1cc(-c2ccccc2)oc2cc(O)cc(O)c12` [CHRYSIN] showed an inhibition at 20 µg/mL [1] of 86%, an inhibition at 10 µg/mL [2] of 44% and an inhibition at 5 µg/mL [3] of 14%.
In the case of `COc1cc(C2CC(=O)c3c(cc(O)c(OC)c3O)O2)ccc1O` (stereo unspecified), the inhibition at 20 µg/mL [1] is reported as 32%, the inhibition at 10 µg/mL [2] is reported as 19% and the inhibition at 5 µg/mL [3] is reported as 9%.
Work on `O=C1C[C@@H](c2ccccc2)Oc2cc(O)cc(O)c21` [PINOCEMBRIN] yielded an inhibition at 20 µg/mL [1] of 66%, an inhibition at 10 µg/mL [2] of 29% and an inhibition at 5 µg/mL [3] of 8%.
For `COc1cc(-c2cc(=O)c3c(O)cc(O)cc3o2)ccc1O` [CHRYSOERIOL], the inhibition at 20 µg/mL [1] was 96%, the inhibition at 10 µg/mL [2] was 85% and the inhibition at 5 µg/mL [3] was 60%. For the same compound, the inhibition (Mesocricetus auratus) was 32%, the Activity [4] was 44.9 pmol and the Activity [5] was 22.5 pmol.
Compound `COc1cc([C@@H]2CC(=O)c3c(O)cc(O)cc3O2)ccc1OC(=O)C(C)C` has an inhibition at 20 µg/mL [1] of 52%.
